Test results: patent US20200157092A1, “[1,2,4]-TRIAZOLO [1,5-A]-PYRIMIDINYL DERIVATIVES SUBSTITUTED WITH PIPERIDINE, […] […] OGA INHIBITORS” (priority 2017, published 2020)
Where two headings read alike, the source gives them in different places.

Target: T1, recombinant human Meningioma Expressed Antigen 5 (MGEA5), also referred to as O-GlcNAcase (OGA) (Homo sapiens, UniProt O60502)
T1 construct: Full length OGA enzyme was purchased at OriGene (cat # TP322411); purchased OriGene TP322411
T1 sequence (O60502 1-916): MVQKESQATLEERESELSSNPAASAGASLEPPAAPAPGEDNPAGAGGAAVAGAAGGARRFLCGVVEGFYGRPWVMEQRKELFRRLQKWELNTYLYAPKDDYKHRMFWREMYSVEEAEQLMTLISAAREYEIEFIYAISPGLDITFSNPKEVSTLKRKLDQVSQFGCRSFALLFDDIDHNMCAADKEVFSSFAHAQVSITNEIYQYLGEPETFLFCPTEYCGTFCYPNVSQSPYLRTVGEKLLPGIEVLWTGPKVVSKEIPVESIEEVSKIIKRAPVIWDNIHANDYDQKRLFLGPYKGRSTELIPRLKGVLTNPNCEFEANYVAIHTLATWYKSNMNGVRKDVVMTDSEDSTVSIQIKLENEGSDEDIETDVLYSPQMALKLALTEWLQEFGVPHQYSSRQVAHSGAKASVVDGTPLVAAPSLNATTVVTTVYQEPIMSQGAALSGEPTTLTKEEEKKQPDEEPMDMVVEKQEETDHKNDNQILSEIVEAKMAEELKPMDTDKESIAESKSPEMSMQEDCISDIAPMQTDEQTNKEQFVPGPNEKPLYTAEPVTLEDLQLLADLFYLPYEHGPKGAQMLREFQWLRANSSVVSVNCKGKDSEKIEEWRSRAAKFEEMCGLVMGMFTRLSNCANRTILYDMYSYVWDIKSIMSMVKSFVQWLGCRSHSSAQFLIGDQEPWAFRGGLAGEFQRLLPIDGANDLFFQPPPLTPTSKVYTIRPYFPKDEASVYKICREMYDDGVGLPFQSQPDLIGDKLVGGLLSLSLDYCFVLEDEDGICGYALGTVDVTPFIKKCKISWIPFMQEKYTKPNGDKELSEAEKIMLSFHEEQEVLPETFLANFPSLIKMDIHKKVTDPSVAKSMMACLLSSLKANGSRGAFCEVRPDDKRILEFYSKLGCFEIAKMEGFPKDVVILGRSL
Assay: OGA biochemical assay: inhibition of FM-GlcNAc hydrolysis, fluorescence; protocol A (10 nM OGA, 1 h) or protocol B (2 nM OGA, 6 h)
Conditions: for IC50: read-out: Enzymatic hOGA, pIC50 (converted)
Protocol: The hydrolysis FM-GlcNAc (Marker Gene technologies, cat # M1485) results in the formation of ß-D-N-glucosamineacetate and fluorescein. The fluorescence of the latter can be measured at excitation wavelength 485 nm and emission wavelength 538 nm. An increase in enzyme activity results in an increase in fluorescence signal. Full length OGA enzyme was purchased at OriGene (cat # TP322411). The enzyme was stored in 25 mM Tris.HCl, pH 7.3, 100 mM glycine, 10% glycerol at −20° C. […] The assay was performed in 200 mM Citrate/phosphate buffer supplemented with 0.005% Tween-20. 35.6 g Na2HPO4 2 H2O (Sigma, # C0759) were dissolved in 1 L water to obtain a 200 mM solution. […] The buffer to stop the reaction consists of a 500 mM Carbonate buffer, pH 11.0. […] OGA was used at a 10 nM (protocol A) or 2 nM (protocol B) concentration and FM-GlcNAc at a 100 uM final concentration. Dilutions were prepared in assay buffer.
Plates were pre-incubated for 60 min at room temperature and then 2 μl FM-GlcNAc substrate mix added. […] Plates were briefly centrifuged for 1 min at 1000 rpm and incubate at room temperature for 1 h (10 nM OGA, protocol A) or 6 h (2 nM OGA, protocol B). To stop the reaction 5 μl STOP buffer were added and plates centrifuge again 1 min at 1000 rpm. Fluorescence was quantified in the Thermo Scientific Fluoroskan Ascent or the PerkinElmer EnVision with excitation wavelength 485 nm and emission wavelength 538 nm.
For analysis a best-fit curve is fitted by a minimum sum of squares method. From this an IC50 value and Hill coefficient was obtained. High control (no inhibitor) and low control (saturating concentrations of standard inhibitor) were used to define the minimum and maximum values.

[1] = Enzymatic protocol B (2 nM OGA, 6 h)
[2] = Enzymatic protocol A (10 nM OGA, 1 h)

CC(c1ccc2c(c1)OCO2)N1CCC(Cc2cccc3nccn23)C1 (stereo not drawn) [Product 67]
Emax [1]: 95.7%
IC50 [1]: 102 nM

CC(=O)Nc1ncc(CN2C[C@@H](c3cc(C)nc4ncnn34)C[C@@H](C(F)(F)F)C2)s1 (mixture of isomers) [Product 84]
Emax [1]: 88.5%
IC50 [1]: 1480 nM

CC(=O)Nc1ncc(S(=O)(=O)N2CCCC(c3ccnc4nccn34)C2)s1 (racemic) [Product 2]
Emax [2]: 98.4%
IC50 [2]: 186 nM

CC(=O)Nc1ncc(CN2CCCC(C)(c3cc(C(F)F)nc4ncnn34)C2)s1 (stereo not drawn) [Product 61]
Emax [1]: 27.4%
IC50 [1]: > 10000 nM

CC(=O)Nc1ncc(CN2CCC(c3cc(C)nc4ccnn34)C2)s1 (stereo not drawn) [Product 21]
Emax [1]: 98.3%
IC50 [1]: 407 nM

Cc1cc(C2CN(C(C)c3ccc4c(c3)OCO4)CCO2)n2ncnc2n1 (stereo not drawn) [Product 53]
Emax [1]: 64.6%
IC50 [1]: 6460 nM

CC(=O)Nc1ncc(CN2CCCC(c3cc4c(ccn4C)nc3C)C2)s1 (stereo not drawn) [Product 105]
Emax [1]: 102%
IC50 [1]: 7.41 nM

CC(=O)Nc1ncc(S(=O)(=O)N2CCC(c3cc(C)nc4ncnn34)C2)s1 (racemic) [Product 8]
Emax [2]: 89%
IC50 [2]: 1550 nM

CC(=O)Nc1ncc(S(=O)(=O)N2CCCC(c3cc(C)nc4ncnn34)C2)s1 (racemic) [Product 3]
Emax [2]: 96%
IC50 [2]: 32.4 nM

CC(=O)Nc1ncc(CN2CC[C@H](C)[C@@H](c3cc(C(F)F)nc4ncnn34)C2)s1 [Product 16]
Emax [2]: 92.5%
IC50 [2]: 1820 nM
Emax [1]: 94.5%
IC50 [1]: 955 nM

CC(=O)Nc1ncc(S(=O)(=O)N2CCCCC(c3ccnc4ncnn34)C2)s1 (stereo not drawn) [Product 109]
Emax [2]: 95.4%
IC50 [2]: 437 nM

CC(=O)Nc1ncc(S(=O)(=O)N2CCC[C@H](c3ccnc4ncnn34)C2)s1 [Product 4]
Emax [2]: 107%
IC50 [2]: 30.9 nM

CC(=O)Nc1ncc(S(=O)(=O)N2CCCC(c3cc(C(F)F)nc4nccn34)C2)s1 (racemic) [Product 5]
Emax [2]: 99.4%
IC50 [2]: 67.6 nM

CC(c1ccc2c(c1)OCO2)N1CCOC(c2cc(C(F)(F)F)nc3ncnn23)C1 (stereo not drawn) [Product 54]
Emax [1]: 25.1%
IC50 [1]: > 10000 nM

CC(=O)Nc1ncc(CN2CCC(c3cc(C)nc4ncnn34)C2)s1 (stereo not drawn) [Product 18]
Emax [1]: 97.3%
IC50 [1]: 295 nM

CC(=O)Nc1ncc(CN2CCC(c3c(F)c(C)nc4ncnn34)C2)s1 (stereo not drawn) [Product 19]
Emax [1]: 97.2%
IC50 [1]: 204 nM

CC(=O)Nc1ncc(S(=O)(=O)N2CCC[C@@H](c3ccnc4ncnn34)C2)s1 [Product 1]
Emax [2]: 94.2%
IC50 [2]: 871 nM
